Data on 1 molecule can be found in US8389012B2, “Gellan-gum nanoparticles and methods of making and using the same” (The Corporation of Mercer University, priority 2008, dated 2013).

One data set relates to PC-3 cells. In words: MTT cytotoxicity assay, PC-3. Type of data set: cell-based, human. The following applies: PC-3, 10, 30, 120 minutes treatment, then 72 h. The procedure: To investigate the cytotoxicity of Ptx-GGbPEG-Apt nanoparticles on human prostate cancer cells, mitochondrial dehydrogenase assay (MTT) was employed. PC-3 or DU-145 cells (5×10^3) were seeded in 96-well plates containing 100 μl of RPMI medium 1640 (American Type Culture Collection), supplemented with 100 units/ml aqueous penicillin G, 100 μg/ml streptomycin, and 10% FBS. Cells were then allowed to adhere overnight prior to treatment. On the day of experiment, cells were washed twice with PBS and then exposed to similar concentrations (25 μg/ml) of Ptx in either the encapsulated or free formulations. The control cells received 1% (v/v) DMSO or drug free GGbPEG nanoparticles (1.0 μg/ml). Cells were incubated with drug formulations for different time points (10, 30, 120 mins) followed by washing with PBS and replacing treatment medium with fresh medium in the plates. Cells were further incubated for 72 h. […] The optical densities (OD) of the resulting solutions were determined at 490 nm using a microplate reader (Packard Instruments, Meriden, Conn.) and cell viability (%) was calculated by comparing the OD of the treatment group relative to that of the untreated control group (100%).
On the technique in general: Formazan colour is commonly taken as a measure of viable cells.

For data set [1], the system named is PC-3 tumors. Put plainly: Histological analysis of excised tumor (H & E). The class given is in vivo, mice. The following applies: day 60 post treatment. The procedure: Selected tumors from each group were harvested and fixed in 10% neutral buffered formalin. Tumors were paraffin embedded, sectioned, placed on polylysine slides, and stained with Hematoxylin & Eosin (H & E) to visualize morphological changes in the tumors in both the treated and control groups. Images were recorded using a light microscope equipped with camera.

The next data set has as its system DU-145 cells. Put plainly: MTT cytotoxicity assay, DU-145. The class given is cell-based, human. The following applies: then 72 h; for viability at 25 µg/mL: Homo sapiens, DU-145, DU-145, 25 μg/ml Ptx, read-out: cell viability. The procedure: To investigate the cytotoxicity of Ptx-GGbPEG-Apt nanoparticles on human prostate cancer cells, mitochondrial dehydrogenase assay (MTT) was employed. PC-3 or DU-145 cells (5×10^3) were seeded in 96-well plates containing 100 μl of RPMI medium 1640 (American Type Culture Collection), supplemented with 100 units/ml aqueous penicillin G, 100 μg/ml streptomycin, and 10% FBS. Cells were then allowed to adhere overnight prior to treatment. On the day of experiment, cells were washed twice with PBS and then exposed to similar concentrations (25 μg/ml) of Ptx in either the encapsulated or free formulations. The control cells received 1% (v/v) DMSO or drug free GGbPEG nanoparticles (1.0 μg/ml). Cells were incubated with drug formulations for different time points (10, 30, 120 mins) followed by washing with PBS and replacing treatment medium with fresh medium in the plates. Cells were further incubated for 72 h. At the end of treatment period, medium was removed and replaced with 100 μl of complete culture medium and 10 μl of MTT (5 mg/ml) in each well and the plates were incubated at 37° C. in a humidified, 5% CO2 atmosphere for 3 h. The resulting formazan crystals were solubilized with 100 μl of the stop solution (0.1N HCl in isopropanol). The optical densities (OD) of the resulting solutions were determined at 490 nm using a microplate reader (Packard Instruments, Meriden, Conn.) and cell viability (%) was calculated by comparing the OD of the treatment group relative to that of the untreated control group (100%).

In data set [2] the test system is PC-3 tumors. In words: In vivo efficacy in athymic nude mice bearing human xenograft prostate cancer tumor. The following applies: single i.v. injection, 60 days. On the technique in general: In xenograft studies the graft and the host belong to different species.
Procedure: For in vivo efficacy study, athymic nude mice bearing human prostate tumor (−150 mm^3) were divided into five groups of four mice, minimizing, weight and tumor size differences. […] Human xenograft prostate cancer tumors were induced in 6-week old athymic nude mice (NCI Frederick, Md., USA). Mice were injected subcutaneously in the right flank with 2.5×10^6 PC-3 cells suspended in a 1:1 mixture of serum-free media and matrigel (BD Biosciences, Franklin Lakes, N.J., USA). Prior to use in tumor induction, PC-3 cells were cultured in RPMI-1640 medium supplemented with 10% fetal bovine serum, 100 units/ml penicillin G, and 100 mg/ml streptomycin. Tumor targeting studies were carried out after the mice developed ˜150 mm^3 tumors. […] After dosing, the mice were monitored for weight and implanted tumor size daily for sixty days. The length and width of the tumors were measured by digital calipers and tumor volume was calculated by the following formula: (width^2×length)/2 [17]. […]
To evaluate the in vivo efficacy of Ptx-GGbPEG-Apt copolymeric nanoparticles, PC-3 cells were injected subcutaneously in the flanks of athymic nude mice as described above. […] The tumor size and body weight were then monitored for 60 days.
For data set [3] the following is noted: i.v.; cited from earlier work.

Read-outs that look alike come from different tables or passages of the source.

`CC(=O)O[C@H]1C(=O)[C@@]2(C)[C@H]([C@H](OC(=O)c3ccccc3)[C@]3(O)C[C@H](OC(=O)[C@H](O)[C@@H](NC(=O)c4ccccc4)c4ccccc4)C(C)=C1C3(C)C)[C@]1(OC(C)=O)CO[C@@H]1C[C@@H]2O` [Ptx, Paclitaxel]: the cytotoxic effect result is “time-dependent cytotoxicity” in the data set with PC-3 cells and “time-dependent cytotoxicity” in the data set on DU-145 cells (DU-145, 10, 30, 120 minutes treatment). The “histological examination of tumors by H & E staining” value in the data set with PC-3 tumors [1] is listed as “extensively necrotic”. Moreover, the viability (usually a per cent measure of how many cells are alive, often set against a control) at 25 µg/mL was 50% in the data set with DU-145 cells (treated 30 minutes) and 35% with DU-145 cells (treated 120 min). In the data set with PC-3 tumors [2], the “efficacy in tumor reduction (comparison of groups)” value is given as “does not show any significant long-term efficacy”. Besides, the “maximal tolerated dose (MTD)” value in data set [3] was 40 mg/kg.
